Common to all, as to test: relative viability (nuclei count vs DMSO), 5 days (fraction); higher = more cells survive
Compound in assay [1]: CN(C)CC1=CC(=CC=C1)N=C(C2=CC=CC=C2)C3=C(NC4=C3C=CC(=C4)C(=O)N(C)C)O + CC(C)C[C@H](NC(=O)[C@H](Cc1ccccc1)NC(=O)c1cnccn1)B(O)O [Bortezomib] (partner 0.002 µM)
Summed up: (§1)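 A single step with final 0.05% Triton X-100, 1% formaldehyde and 1 ug/ml Hoechst fixed the cells and stained nuclei 5 days after treatment. Lung cancer cell lines in 1536-well plates had been treated by pin tool the day after seeding with one drug alone or a fixed anchor-drug dose plus five library-drug doses (not always all listed) in √10 steps, and nuclei were counted on 4× images. Relative viability is the ratio of nuclei in treated wells to nuclei in vehicle wells, taken as the median of duplicate plates.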

Compound in assay [2]: CN(C)CC1=CC(=CC=C1)N=C(C2=CC=CC=C2)C3=C(NC4=C3C=CC(=C4)C(=O)N(C)C)O + Cc1nc(NC(=O)N2CCC[C@H]2C(N)=O)sc1-c1ccnc(C(C)(C)C(F)(F)F)c1 [Alpelisib] (partner 2 µM)
Summed up:
as §1

Compound in assay [3]: CN(C)CC1=CC(=CC=C1)N=C(C2=CC=CC=C2)C3=C(NC4=C3C=CC(=C4)C(=O)N(C)C)O + Nc1nc2[nH]cc(CCc3ccc(C(=O)N[C@@H](CCC(=O)O)C(=O)O)cc3)c2c(=O)[nH]1 [Pemetrexed] (partner 0.2 µM)
Summed up:
as §1

Compound in assay [4]: CN(C)CC1=CC(=CC=C1)N=C(C2=CC=CC=C2)C3=C(NC4=C3C=CC(=C4)C(=O)N(C)C)O + O=C(c1cc(Cc2n[nH]c(=O)c3ccccc23)ccc1F)N1CCN(C(=O)C2CC2)CC1 [Olaparib] (partner 8 µM)
Summed up: as §1

In the case of RERF-LC-KJ, the relative viability in assay [1] (first compound 0.08 µM) was determined as 1.36; in assay [1] (first compound 0.253 µM) it was 1.12; in assay [1] (first compound 0.8 µM) it was 1.07; in assay [1] (first compound 2.53 µM) it was 1.01; in assay [1] (first compound 8 µM) it was 1.02; in assay [2] (first compound 0.08 µM), 0.838. Moreover, the relative viability in assay [2] (first compound 0.253 µM) is 0.843; in assay [2] (first compound 0.8 µM), 0.732; in assay [2] (first compound 2.53 µM), 0.785; in assay [2] (first compound 8 µM) it was 0.928; in assay [3] (first compound 0.08 µM), 0.473; in assay [3] (first compound 0.253 µM), 0.453. Besides, the relative viability stood at 0.491 in assay [3] (first compound 0.8 µM); 0.443 in assay [3] (first compound 2.53 µM); 0.499 in assay [3] (first compound 8 µM); 0.971 in assay [4] (first compound 0.08 µM); 0.906 in assay [4] (first compound 0.253 µM); 0.882 in assay [4] (first compound 0.8 µM). Further, the relative viability in assay [4] (first compound 2.53 µM) stood at 0.9; in assay [4] (first compound 8 µM), 0.904.
Turning to SK-LU-1, the relative viability worked out at 0.94 in assay [1] (first compound 0.08 µM); 1.17 in assay [1] (first compound 0.253 µM); 1.16 in assay [1] (first compound 0.8 µM); 1.13 in assay [1] (first compound 2.53 µM); 1.01 in assay [1] (first compound 8 µM); 0.883 in assay [2] (first compound 0.08 µM). In addition, the relative viability in assay [2] (first compound 0.253 µM) came out at 1.01; in assay [2] (first compound 0.8 µM) it was 0.992; in assay [2] (first compound 2.53 µM) it was 0.87; in assay [2] (first compound 8 µM) it was 0.597; in assay [3] (first compound 0.08 µM), 1.01; in assay [3] (first compound 0.253 µM), 0.941. Besides, the relative viability in assay [3] (first compound 0.8 µM) stood at 1.03; in assay [3] (first compound 2.53 µM), 0.961; in assay [3] (first compound 8 µM), 0.781; in assay [4] (first compound 0.08 µM) it was 0.483; in assay [4] (first compound 0.253 µM), 0.47; in assay [4] (first compound 0.8 µM), 0.516. Besides, the relative viability in assay [4] (first compound 2.53 µM) was found to be 0.431; in assay [4] (first compound 8 µM), 0.385.
In the case of SW 1573, the relative viability in assay [1] (first compound 0.08 µM) turned out to be 1.04; in assay [1] (first compound 0.253 µM) it was 1.16; in assay [1] (first compound 0.8 µM), 1.06; in assay [1] (first compound 2.53 µM) it was 0.946; in assay [1] (first compound 8 µM) it was 0.94; in assay [2] (first compound 0.08 µM) it was 0.787. The relative viability in assay [2] (first compound 0.253 µM) is 0.711; in assay [2] (first compound 0.8 µM), 0.651; in assay [2] (first compound 2.53 µM), 0.802; in assay [2] (first compound 8 µM), 0.642; in assay [3] (first compound 0.08 µM), 0.823; in assay [3] (first compound 0.253 µM), 0.83. Also, the relative viability in assay [3] (first compound 0.8 µM) stood at 0.987; in assay [3] (first compound 2.53 µM) it was 0.792; in assay [3] (first compound 8 µM), 0.768; in assay [4] (first compound 0.08 µM) it was 0.362; in assay [4] (first compound 0.253 µM), 0.416; in assay [4] (first compound 0.8 µM), 0.419. Besides, the results for the relative viability in assay [4] (first compound 2.53 µM) and in assay [4] (first compound 8 µM) were 0.523 and 0.377, respectively.
On to UMC-11, for which the relative viability in assay [1] (first compound 0.08 µM) was 0.744; in assay [1] (first compound 0.253 µM), 0.645; in assay [1] (first compound 0.8 µM), 0.725; in assay [1] (first compound 2.53 µM) it was 0.577; in assay [1] (first compound 8 µM), 0.698; in assay [2] (first compound 0.08 µM), 0.972. Further, the relative viability was 0.882 in assay [2] (first compound 0.253 µM); 1.12 in assay [2] (first compound 0.8 µM); 0.923 in assay [2] (first compound 2.53 µM); 0.968 in assay [2] (first compound 8 µM); 0.779 in assay [3] (first compound 0.08 µM); 0.752 in assay [3] (first compound 0.253 µM). The relative viability in assay [3] (first compound 0.8 µM) stood at 0.839; in assay [3] (first compound 2.53 µM) it was 0.714; in assay [3] (first compound 8 µM) it was 0.736; in assay [4] (first compound 0.08 µM), 0.37; in assay [4] (first compound 0.253 µM), 0.368; in assay [4] (first compound 0.8 µM), 0.344. Also, the relative viability came out at 0.371 in assay [4] (first compound 2.53 µM) and 0.349 in assay [4] (first compound 8 µM).
